Measured values: patent publication US10202388B2, “Fused-ring compounds, pharmaceutical composition and uses thereof” (SHANGHAI DE NOVO PHARMATECH CO., LTD., priority 2015, dated 2019)

Biological target: HeLa cell based IDO1 (Homo sapiens (Human), UniProt P14902)
Assay: Three-point IDO1 cellular assay (HeLa, 10, 100 and 1000 nM)
Conditions: HeLa cells, 100 ng/mL IFN-γ, 18 hours
Experimental: To perform the 3-point HeLa cell based IDO1 assay, HeLa cells were seeded at 25,000 cells per well into 96-well microplate in 100 μL of growth medium. Cells were incubated at 37° C. and 5% CO2 overnight. The next day 100 μL per well of diluted inhibitor in growth medium at 10, 100 and 1000 nM, respectively, was added at a final concentration of 100 ng/ML human IFN-γ. Cells were incubated at 37° C. in a CO2 incubator for 18 hours. […] The plate was incubated at 50° C. for 30 min to hydrolyze N-formylkynurenine produced by IDO1 to kynurenine. The plate was then centrifuged at 2500 rpm for 10 min to remove sediments. 100 μl of supernatant per well was transferred to another 96-well plate and mixed with 100 μL of 2% (w/v) 4-(Dimethylamino) benzaldehyde in acetic acid. The plate was incubated at room temperature for 10 minutes, the yellow color derived from kynurenine was recorded by measuring absorbance at 480 nm using a microplate reader (TECAN Infinite M1000 Pro). Cell based assays were performed in triplicate at each concentration. The absorbance data were analyzed using the computer software, Graphpad Prism. In the absence of the compound and presence of 100 ng/ML IFN-γ, the absorbance (At) in each data set was defined as 100%. The absorbance of medium blank (Ab) in each data set was defined as 0%. The percent absorbance in the presence of each compound was calculated according to the following equation: % Absorbance=(A−Ab)/(At−Ab), where A=the absorbance in the presence of the compound and IFN-γ, Ab=the absorbance of medium blank, and At=the absorbance in the absence of the compounds and presence of IFN-γ. The values of % absorbance versus the compound concentrations were then determined.

Sequence of HeLa cell based IDO1 (P14902 whole entry): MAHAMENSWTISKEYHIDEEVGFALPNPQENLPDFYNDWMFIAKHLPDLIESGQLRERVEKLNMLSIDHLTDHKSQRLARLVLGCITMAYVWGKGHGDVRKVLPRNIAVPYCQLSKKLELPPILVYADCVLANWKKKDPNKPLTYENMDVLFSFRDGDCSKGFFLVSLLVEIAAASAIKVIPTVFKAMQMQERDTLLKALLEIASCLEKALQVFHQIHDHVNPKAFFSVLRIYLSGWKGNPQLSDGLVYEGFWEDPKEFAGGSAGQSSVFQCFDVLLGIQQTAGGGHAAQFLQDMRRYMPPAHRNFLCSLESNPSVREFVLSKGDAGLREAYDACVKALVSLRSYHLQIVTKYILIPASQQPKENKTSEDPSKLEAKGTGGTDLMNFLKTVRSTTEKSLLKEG

`CS(=O)(=O)NC1C2CC3CC1CC(C(O)CC1c4c(F)cccc4-c4cncn41)(C3)C2` (centres unmarked) [Compound 46A] was tested, and the inhibition at 0.1 µM (at 100 nM) was > 50%.

With `NS(=O)(=O)NC1C2CC3CC1CC(C(O)CC1c4c(F)cccc4-c4cncn41)(C3)C2` (centres unmarked) [Compound 48A] the inhibition at 1 µM (at 1000 nM) was > 50%.

With `O=C(Cc1ccncc1)NC1C2CC3CC1CC(C(O)CC1c4ccccc4-c4cncn41)(C3)C2` (centres unmarked) [Compound 50A] the inhibition at 1 µM (at 1000 nM) was > 50%.

For `O=C(CO)NC1C2CC3CC1CC(C(O)CC1c4ccccc4-c4cncn41)(C3)C2` (centres unmarked) [Compound 51A], the inhibition at 1 µM (at 1000 nM) was > 50%.

For `O=C(Cc1ccccc1)NC1C2CC3CC1CC(C(O)CC1c4ccccc4-c4cncn41)(C3)C2` (centres unmarked) [Compound 53B], the inhibition at 0.1 µM (at 100 nM) was > 50%.

In the case of `O=C(NC1CCOCC1)NC1C2CC3CC1CC(C(O)CC1c4c(F)cccc4-c4cncn41)(C3)C2` (centres unmarked) [Compound 54], the “inhibition values of %” value (at 1000 nM) is reported as “greater than 50%”.

For `O=C(Nc1cccnc1)NC1C2CC3CC1CC(C(O)CC1c4c(F)cccc4-c4cncn41)(C3)C2` (centres unmarked) [Compound 56A], the inhibition at 1 µM (at 1000 nM) was > 50%.

In the case of `O=C1C2CC3CC1CC(C(O)CC1c4c(F)cccc4-c4cncn41)(C3)C2` (centres unmarked) [Compound 63], the “inhibition values of %” value (at 1000 nM) is reported as “greater than 50%”.

With `O=S(=O)(CCc1ccccc1)NC1C2CC3CC1CC(C(O)CC1c4c(F)cccc4-c4cncn41)(C3)C2` (centres unmarked) [Compound 64] the inhibition at 0.1 µM (at 100 nM) was > 50%.

With `O=S(=O)(CC1CCCCC1)NC1C2CC3CC1CC(C(O)CC1c4c(F)cccc4-c4cncn41)(C3)C2` (centres unmarked) [Compound 65] the inhibition at 0.01 µM (at 10 nM) was > 50%.

`O=S(=O)(CC1CCC1)NC1C2CC3CC1CC(C(O)CC1c4c(F)cccc4-c4cncn41)(C3)C2` (centres unmarked) [Compound 67A] was tested, and the inhibition at 1 µM (at 1000 nM) was > 50%.

With `O=S(=O)(CC1CC1)NC1C2CC3CC1CC(C(O)CC1c4c(F)cccc4-c4cncn41)(C3)C2` (centres unmarked) [Compound 68] the inhibition at 0.1 µM (at 100 nM) was > 50%.

With `Cc1ccc(CS(=O)(=O)NC2C3CC4CC2CC(C(O)CC2c5c(F)cccc5-c5cncn52)(C4)C3)cc1` (centres unmarked) [Compound 70A] the inhibition at 0.01 µM (at 10 nM) was > 50%.

With `O=S(=O)(Cc1ccccc1)NC1C2CC3CC1CC(C(O)CC1c4ccccc4-c4cncn41)(C3)C2` (centres unmarked) [Compound 75A] the inhibition at 0.01 µM (at 10 nM) was > 50%.

In the case of `O=S(=O)(Cc1ccccc1)NC1C2CC3CC1CC(C(O)CC1c4ccccc4-c4cncn41)(C3)C2` (centres unmarked) [Compound 75B], the inhibition at 1 µM (at 1000 nM) is reported as > 50%.

With `N#CC1C2CC3CC1CC(C(O)CC1c4c(F)cccc4-c4cncn41)(C3)C2` (centres unmarked) [Compound 76] the “inhibition values of %” value (at 1000 nM) was “greater than 50%”.

`ON=C1C2CC3CC1CC(C(O)CC1c4c(F)cccc4-c4cncn41)(C3)C2` (centres unmarked) [Compound 80] was tested, and the “inhibition values of %” value (at 1000 nM) was “greater than 50%”.

For `O=S(=O)(CC1CCCC1)NC1C2CC3CC1CC(C(O)CC1c4c(F)cccc4-c4cncn41)(C3)C2` (centres unmarked) [Compound 82A], the inhibition at 0.01 µM (at 10 nM) was > 50%.

`O=S(=O)(CC1CCOCC1)NC1C2CC3CC1CC(C(O)CC1c4c(F)cccc4-c4cncn41)(C3)C2` (centres unmarked) [Compound 84A] was tested, and the “inhibition values of %” value (at 100 nM) was “greater than 50%”.

In the case of `O=S(=O)(NC1C2CC3CC1CC(C(O)CC1c4c(F)cccc4-c4cncn41)(C3)C2)C1CCCC1` (centres unmarked) [Compound 85A], the “inhibition values of %” value (at 10 nM) is reported as “greater than 50%”.

`CN(C1C2CC3CC1CC(C(O)CC1c4c(F)cccc4-c4cncn41)(C3)C2)S(=O)(=O)Cc1ccccc1` (centres unmarked) [Compound 89] was tested, and the “inhibition values of %” value (at 100 nM) was “greater than 50%”.

In the case of `O=C(Nc1ccc(F)cc1)NC1C2CC3CC1CC(C(O)CC1c4c(F)cccc4-c4cncn41)(C3)C2` (centres unmarked) [Compound 93B], the inhibition at 0.1 µM (at 100 nM) is reported as > 50%.

With `O=C(Nc1ccc(Cl)cc1)NC1C2CC3CC1CC(C(O)CC1c4c(F)cccc4-c4cncn41)(C3)C2` (centres unmarked) [Compound 94A] the inhibition at 0.1 µM (at 100 nM) was > 50%.

For `O=C(Nc1ccc(Br)cc1)NC1C2CC3CC1CC(C(O)CC1c4c(F)cccc4-c4cncn41)(C3)C2` (centres unmarked) [Compound 95A], the inhibition at 0.1 µM (at 100 nM) was > 50%.

In the case of `O=C(NC1CCCCC1)NC1C2CC3CC1CC(C(O)CC1c4c(F)cccc4-c4cncn41)(C3)C2` (centres unmarked) [Compound 96A], the inhibition at 0.1 µM (at 100 nM) is reported as > 50%.

For `CNC(=O)NC1C2CC3CC1CC(C(O)CC1c4c(F)cccc4-c4cncn41)(C3)C2` (centres unmarked) [Compound 98A], the “inhibition values of %” value (at 1000 nM) was “greater than 50%”.

For `CC(=O)c1ccc(NC(=O)NC2C3CC4CC2CC(C(O)CC2c5ccccc5-c5cncn52)(C4)C3)cc1` (centres unmarked) [Compound 104], the inhibition at 1 µM (at 1000 nM) was > 50%.

For `O=C(Nc1ccc(F)cc1F)NC1C2CC3CC1CC(C(O)CC1c4c(F)cccc4-c4cncn41)(C3)C2` (centres unmarked) [Compound 105A], the inhibition at 0.1 µM (at 100 nM) was > 50%.

`O=C(NC1CC1)NC1C2CC3CC1CC(C(O)CC1c4c(F)cccc4-c4cncn41)(C3)C2` (centres unmarked) [Compound 106A] was tested, and the inhibition at 1 µM (at 1000 nM) was > 50%.
